ChEMBL document CHEMBL1156829 (Proc Natl Acad Sci U S A, 2008)

Assays:
Plasmodium falciparum [1] = assay: NOVARTIS: Inhibition of Plasmodium falciparum 3D7 (drug-susceptible) proliferation in erythrocyte-based infection assay; type: functional, organism-based; details: Plasmodium falciparum, 3D7
Plasmodium falciparum [2] = assay: NOVARTIS: Inhibition of Plasmodium falciparum W2 (drug-resistant) proliferation in erythrocyte-based infection assay; type: functional, organism-based; details: Plasmodium falciparum, W2; read-out: EC50
[3] = NOVARTIS: Cytotoxicity against human hepatocellular carcinoma cell line (Huh7); type: toxicity, cell-based, Huh-7; details: Huh7 cells (hepatocellular carcinoma cell line)

| SMILES | EC50 (Plasmodium falciparum [1]) [µM] | EC50 (Plasmodium falciparum [2]) [µM] | CC50 [3] [µM] |
| --- | --- | --- | --- |
| COc1ccc(Nc2nc(NN=Cc3cc(Br)c(O)cc3O)nc(Nc3ccc([N+](=O)[O-])cc3)n2)cc1 | 0.075 | 0.198 | 9.58 |
| COc1ccc(-c2cc(C(F)(F)F)n3ncc(C(=O)Nc4cc(C)ccc4O)c3n2)cc1OC | 3.35 | 2.13 | > 100 |
| CO[C@H](C(=O)[C@@H](O)[C@@H](C)O)[C@@H]1Cc2cc3cc(O[C@H]4C[C@@H](O[C@@H]5C[C@@H](O)[C@@H](O)[C@@H](C)O5)[C@@H](O)[C@H](C)O4)c(C)c(O)c3c(O)c2C(=O)[C@H]1O[C@H]1C[C@@H](O[C@H]2C[C@@H](O[C@H]3C[C@](C)(O)[C@@H](O)[C@H](C)O3)[C@H](O)[C@@H](C)O2)[C@H](O)[C@H](C)O1 | 0.497 | 0.208 | > 10 |
| CC(C)(C)NC(=S)Nc1cccc(Cl)c1Cl | > 7.24 | 2.11 | > 100 |
| CCN1CCN(c2cc(C)c3cc(NC(=O)c4cncc(Br)c4)ccc3n2)CC1 | 0.265 | 0.411 | 19.4 |
| CC(C)(C)CC(C)(C)Nc1c(-c2ccccc2OC(=O)c2ccccc2)nc2ccccn12 | 1.07 | 0.0268 | > 1.26 |
| CC(Cc1ccccc1Sc1ccccc1O)N(C)C (centres undefined) | 2.04 | 0.722 | 34 |
| COc1ccccc1NC1=CC(=NS(=O)(=O)c2ccccc2)c2ccccc2C1=O | 0.225 | 0.288 | 13.6 |
| CCN(CC)c1cc2oc3cc(=[N+](CC)CC)ccc-3nc2c2ccccc12 | 0.865 | 0.826 | 39.8 |
| COc1ccc2nc(C)cc(Nc3ccc(N4CCN(C)CC4)cc3)c2c1 | 0.0832 | 0.153 | 7.33 |
| Fc1cccc(Nc2nc(NCC3CCCO3)c3ccccc3n2)c1 (centres undefined) | 0.142 | 0.203 | 9.58 |
| O=C(NN=Cc1ccncc1)c1cc(-c2cccc([N+](=O)[O-])c2)[nH]n1 | > 8.13 | 2.12 | > 100 |
| CCOC(=O)c1c(S(=O)(=O)N2CCCC(C(=O)N3CCN(c4cccc(C)c4C)CC3)C2)c(C)n(C)c1C (centres undefined) | 0.923 | 2.12 | > 100 |
| O=C(Nc1ccc(C2=NCCN2)cc1)Nc1cccc(C(=O)Nc2ccc(C3=NCCN3)cc2)c1 | 0.108 | 0.211 | > 10 |
| CC(C)NC(=O)N1CCN(C(=O)C(Cc2c[nH]c3ccccc23)NC(=O)Nc2cccc(C#N)c2)CC1C (centres undefined) | 0.0567 | 0.211 | > 10 |
| CCOC(=O)c1ccc(NC(=O)c2cc(-c3ccccc3)nc3ccc(C)cc23)cc1 | > 12.5 | 2.1 | > 100 |
| Cc1ccc(-c2cc3nc4c(c(O)n3n2)CCCC4)cc1 | 1.6 | 2.1 | > 100 |
| COc1ccccc1NC1=CC(=NS(=O)(=O)c2ccc(F)cc2)c2ccccc2C1=O | 0.375 | 0.431 | 20.6 |
| Nc1ncc(Br)cc1S(=O)(=O)NCCC(=O)N1CC=C(c2ccccc2)CC1 | 0.384 | 1.02 | 48.9 |
| O=C(NCCc1ccccc1)c1cnc(NCCCn2ccnc2)nc1NCC1CCCCC1 | 0.0914 | 0.208 | > 10 |
| CCc1ccccc1-n1c(C(C)N(C)C(=O)/C=C/c2ccc([N+](=O)[O-])cc2)nc2ccccc2c1=O (centres undefined) | 0.267 | 0.174 | 8.35 |
| CSC1=NC(=Nc2ccccc2C)C2(CCC(C(C)(C)C)CC2)N1c1ccc(O)cc1 (centres undefined) | 0.243 | 0.208 | > 10 |
| COc1ccc(-c2c[n+](Cc3ccc(Cl)cc3Cl)c3n2CCC3)cc1 | 0.189 | 0.667 | 31.8 |
| Cc1cccc2cc(C(c3nnnn3C3CCCC3)N3CCCC4(CCCCC4)C3)c(=O)[nH]c12 (centres undefined) | > 1.25 | > 0.209 | > 10 |

| SMILES | EC50 (Plasmodium falciparum [1]) [µM] | EC50 (Plasmodium falciparum [2]) [µM] | CC50 [3] [µM] |
| --- | --- | --- | --- |
| O=C1[C@H]2Cc3c([nH]c4ccccc34)C(CCc3ccccc3)N2C(=O)CN1CCc1c[nH]c2ccccc12 (some centres undefined) | 1.35 | 0.208 | > 10 |
| O=C(Nc1ccc(-c2nc3ccccc3[nH]2)cc1)c1ccccc1Oc1ccccc1 | 1.58 | 2.14 | > 100 |
| CCCCCc1ccc(C(=O)N(C)CCCNc2ccnc3cc(Cl)ccc23)cc1 | 0.25 | 0.31 | 15.1 |
| CN(CCCNc1ccnc2cc(Cl)ccc12)C(=O)c1ccc2c(c1)OCO2 | 0.249 | 0.214 | > 10 |
| CCOc1ccccc1NC(=O)Nc1ccc2nc(N3CCN(C)CC3)cc(C)c2c1 | 1.17 | 0.456 | 21.4 |
| C[n+]1cccc(CNC2=C(Cl)C(=O)c3ccccc3C2=O)c1 | 0.127 | 0.213 | > 10 |
| C(#Cc1ccccc1)CN(Cc1ccccn1)Cc1ccccn1 | 1.56 | 0.3 | > 14.1 |
| CN(CCCNc1ccnc2cc(Cl)ccc12)C(=O)c1ccc(F)cc1 | 0.127 | 0.212 | > 10 |
| Fc1ccc(C(CCNc2ncnc3c2[nH]c2ccccc23)c2ccco2)cc1 (centres undefined) | 0.216 | 0.419 | 20.2 |
| Cc1cccc(C)c1NC(=O)CN1C(=O)C(C)(C)Oc2ccc(C(=O)NC(C)(C)C)cc21 | > 9.24 | 2.07 | > 100 |
| Cc1cc(N2CCN(C)CC2)nc2ccc(NC(=O)Nc3ccccc3Cl)cc12 | 3.1 | 2.06 | > 100 |
| Cc1noc(-c2ccc(O)cc2O)c1-c1ccc2c(c1)OCCCO2 | 0.47 | 0.209 | > 10 |
| O=C(Nc1cccnc1)c1cc(-c2cccnc2)nc2ccc(Br)cc12 | > 12.5 | 2.14 | > 100 |
| CCOC(=O)c1cccc(OC(=O)c2ccccc2)c1 | > 7.67 | 2.12 | > 100 |
| COc1ccc(-c2cc(C(=O)Nc3cc(Oc4ccc(NC(C)=O)cc4)cc([N+](=O)[O-])c3)c3ccccc3n2)cc1 | > 12.5 | 2.11 | > 100 |
| CC(C)=CCCC(C)=CCCC(C)NCCN1CCNCC1 (centres undefined) | 0.411 | 0.14 | 6.69 |
| CCC(=O)Oc1ccccc1-c1nc2ccccn2c1NC(C)(C)CC(C)(C)C | 0.743 | 0.0349 | 1.65 |
| CCCCc1c(C)nc2c(OC)cccc2c1O | 1.69 | 2.11 | > 100 |
| CC(C)(C)c1ccc(C(=O)NCCCCNc2ccnc3cc(Cl)ccc23)cc1 | 0.176 | 0.23 | > 10.9 |
| O=c1cc(C(F)(F)F)c2cc(Cl)c(O)cc2o1 | > 12.5 | 2.12 | > 100 |
| CC(=O)N(C)C1=C(N2CCCCCC2)C(=O)c2ccccc2C1=O | 0.0358 | 0.0386 | 1.86 |
| Cc1ccn2c(NC(C)(C)CC(C)(C)C)c(-c3ccccc3OC(=O)C34CC5CC(CC(C5)C3)C4)nc2c1 | 0.788 | 0.214 | > 10 |
| CCOc1ccc2ncc(S(=O)(=O)c3ccc(OC)cc3)c(N3CCN(C)CC3)c2c1 | 0.1 | 2.08 | > 100 |
| Cc1nc2c(C)c(-c3ccccc3)nn2c(O)c1C | 1.02 | 2.08 | > 100 |
